Results reported in patent US20130004481A1, “ANTICANCER THERAPY” (BOEHRINGER INGELHEIM INTERNATIONAL GMBH, priority 2011, published 2013).

Target: T1, wild type (wt)-Xenopus laevis Aurora B/INCENP complex (Xenopus laevis, UniProt Q6DE08)
T1 construct: Purified (wt)-Xenopus laevis Aurora B^60-361/INCENP^790-847 complex was stored at −80° C; GST (cleaved yes); made in house; host or cells: E. coli BL21(DE3) with pUBS520 helper plasmid
Experiment: Radioactive kinase assay using wt Xenopus laevis Aurora B/INCENP complex
Format: biochemical
Settings: 100 μM ATP
Procedure: Radioactive Kinase Assay Using a Wild Type (wt)-Xenopus laevis Aurora B/INCENP Complex:
The kinase assays are run in the presence of 100 μM ATP using 10 μM of a substrate peptide. pAUB-IN847 was used to transform the E. coli strain BL21(DE3) containing the pUBS520 helper plasmid. Both proteins and their mutants are expressed and purified under essentially identical conditions. Protein expression is induced with 0.3 mM IPTG at an OD600 of 0.45-0.7. Expression is then continued for about 12-16 hours at 23-25° C. with agitation. […] 20-30 ml lysis buffer are used per liter of E. coli culture. Cells are lysed by sonication, and the lysates cleared by centrifugation at 12000 rpm for 45-60 min on a JA20 rotor. The supernatants are incubated with 300 μl of GST Sepharose Fast Flow (Amersham Biosciences) per liter of bacterial culture. The resin is first washed with PBS buffer and finally equilibrated with lysis buffer. After a 4-5 hour agitation at 4° C., the beads are washed with 30 volumes of lysis buffer, and then equilibrated with 30 volumes of cleavage buffer (50 mM Tris pH 7.6, 150 mM NaCl, 1 mM DTT, 1 mM EDTA). To cleave the GST from Aurora B, 10 units of Prescission protease (Amersham Biosciences) per milligram of substrate are added and the incubation is protracted for 16 hours at 4° C. The supernatant, which contains the cleaved product, is collected and loaded onto a 6 ml Resource Q column (Amersham Biosciences) equilibrated with Ion Exchange buffer (50 mM Tris pH 7.6, 150 mM NaCl, 1 mM DTT, 1 mM EDTA). The Aurora B/INCENP complex is collected in the flow through of the column. The flow-through of the Resource Q column is concentrated and loaded onto a Superdex 200 size-exclusion chromatography (SEC) column equilibrated with SEC buffer (Tris HCl 10 mM pH 7.6, NaCl 150 mM, DTT 1 mM, EDTA 1 mM). […] The final yield is about 1-2 mg of pure complex per liter of bacteria.
Assay conditions: Enzyme activity was assayed in the presence or absence of serial inhibitor dilutions.
Data analysis: Inhibitor concentrations were transformed to logarithmic values and the raw data were normalized. These normalized values were used to calculate the IC50 values. […] Each microtiter plate contained internal controls, such as blank, maximum reaction and historical reference compound.

T1 sequence (Q6DE08 60-361): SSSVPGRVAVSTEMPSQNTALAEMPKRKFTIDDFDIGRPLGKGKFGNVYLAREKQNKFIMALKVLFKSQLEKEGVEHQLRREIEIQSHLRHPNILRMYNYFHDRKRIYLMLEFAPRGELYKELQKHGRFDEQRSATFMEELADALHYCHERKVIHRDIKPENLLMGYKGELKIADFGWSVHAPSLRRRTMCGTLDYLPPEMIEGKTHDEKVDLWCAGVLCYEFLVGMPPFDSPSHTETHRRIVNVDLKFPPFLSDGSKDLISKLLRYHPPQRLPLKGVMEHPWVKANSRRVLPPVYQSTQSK
T1 sequence (O13024 790-847 partner limits assumed): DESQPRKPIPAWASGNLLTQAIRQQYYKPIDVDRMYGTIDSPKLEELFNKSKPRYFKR

SMILES	IC50
CCNC(=O)C#Cc1ccc2c(c1)NC(=O)/C2=C(\Nc1ccc(N2CCN(C)CC2)cc1)c1ccccc1 [Compound 1, N-ethyl-3-[3-[[4-(4-methylpiperazin-1-yl)anilino]-phenylmethylidene]-2-oxo-1H-indol-6-yl]prop-2-ynamide]	2 nM
CN(C)Cc1ccc(N/C(=C2\C(=O)Nc3cc(C#CC(=O)NCC(F)F)ccc32)c2ccccc2)cc1 [Compound 2, N-(2,2-difluoroethyl)-3-[3-[[4-(dimethylaminomethyl)anilino]-phenylmethylidene]-2-oxo-1H-indol-6-yl]prop-2-ynamide]	7 nM
O=C(C#Cc1ccc2c(c1)NC(=O)/C2=C(\Nc1ccc(CN2CCCC2)cc1)c1ccccc1)NCC(F)F [Compound 3, N-(2,2-difluoroethyl)-3-[2-oxo-3-[phenyl-[4-(pyrrolidin-1-ylmethyl)anilino]methylidene]-1H-indol-6-yl]prop-2-ynamide]	4 nM
O=C(C#Cc1ccc2c(c1)NC(=O)/C2=C(\Nc1ccc(CN2CCCC2)cc1)c1ccccc1)NCCF [Compound 4, N-(2-fluoroethyl)-3-[2-oxo-3-[phenyl-[4-(pyrrolidin-1-ylmethyl)anilino]methylidene]-1H-indol-6-yl]prop-2-ynamide]	5 nM
CCNC(=O)C#Cc1ccc2c(c1)NC(=O)/C2=C(\Nc1ccc(CN(C)C)cc1)c1ccccc1 [Compound 6, 3-[3-[[4-(dimethylaminomethyl)anilino]-phenylmethylidene]-2-oxo-1H-indol-6-yl]-N-ethylprop-2-ynamide]	3 nM
